Data set [1] in a line: ABTS radical assay (free radical scavenging). Format: biochemical. Here is the method: We investigated the free radical scavenging ability of the selected ligands and their newly synthesised complexes using the ABTS assay. 2,2′-Azinobis-[3-ethylbenzthiazoline-6-sulfonic acid] (ABTS) was dissolved in Milli-Q water to yield a 7 mM solution. The ABTS radical cation solution was prepared by allowing the ABTS solution to react with the K2S2O8 solution (final concentration 2.45 mM) for 16 h in the dark at room temperature. It has been reported that the extinction coefficient of ABTS^•+ radicals at 734 nm is 1.5 × 10^4 mol^−1 L cm^−1. Using the Beer–Lambert law, ABTS^•+ radical concentrations were calculated. To determine the antioxidant capacity of the complex solutions and standard antioxidant (Trolox), the ABTS solution was diluted with 5 mM PBS (pH 7.4) to an absorbance at 732 nm of 0.7 ± 0.1 After the addition of different volumes (0–1 mL) of each compound solution to 2.5 mL of diluted ABTS^•+, the absorbance was measured at 30 min. All samples were analysed in triplicate. The ABTS^•+radical scavenging activity (AA%) was calculated using the following equation: AA% = ((Acontrol − Asample)/(Acontrol)) × 100, where Acontrol is the absorbance of the blank control (containing ABTS^•+ solution without test sample) and Asample is the absorbance of the test sample. The antioxidant activity was described as the 50% inhibition concentration (IC50). The IC50 values were calculated from regression lines where x is the concentration of complex or ligand in mM and y is the percent inhibition of the analysed compound.

On the set-up of data set [2]: method as in PMID 24406400. Particulars: aqueous solution; cited from earlier work.
The subject of data set [3] is HT29 (colon adenocarcinoma). The data set is described as follows: in vitro cytotoxicity / proliferation, HT29. Format: cell-based, human. Particulars: read-out: IC50 (inhibits proliferation of 50% of cells). The source says: (§1) For IC50 determination, the human cancer lines A549 (non-small cell lung carcinoma), HT29 (colon adenocarcinoma) and MCF-7 (breast adenocarcinoma), and a healthy mouse fibroblast cell line (BALB/3T3), were used. All tested cell lines were obtained from the American Type Culture Collection (Rockville, MD, USA) and maintained at the Cell Culture Collection of the Hirszfeld Institute of Immunology and Experimental Therapy (Wrocław, Poland). The details of the experimental conditions were described in [69]. […] IC50 values were calculated separately for each experiment, which was repeated 3–5 times.

The subject of data set [4] is healthy mouse fibroblast cell line (BALB/3T3). The data set is described as follows: in vitro cytotoxicity / proliferation, BALB/3T3. Format: cell-based. Particulars: for IC50: BALB/3T3 normal cell line, read-out: IC50 (inhibits proliferation of 50% of cells).
Text: as §1

The nature of data set [5]: solubility. Format: physicochemical. As for the experimental part:
(§2) Among the synthetic compounds used for modelling biological systems, mimetics that are soluble in solvents of neutral pH are particularly favoured because they can penetrate cell membranes and, thus, be absorbed by the organism. […] Additionally, we checked the stability of selected complexes in buffer solution (PBS) at two different time points (0 min and 12 h).

Data set [6] can be described thus: stability in buffer solution (PBS) by UV-Vis. Format: physicochemical. Particulars: room temperature, 0 min and 12 h, UV-Vis spectra. Here is the method:
as §2

The subject of data set [7] is SOD. As to the kind of experiment: SOD activity (RANSOD test) in patients' blood samples after addition of the mimetic. It is filed as biochemical, human. The source says: (§3) The present study was based on 20 women of the Regional Hospital in Kielce who had previously undergone therapy for diagnosed breast tumour, and 10 healthy volunteers (samples were anonymised). Patients were divided into subgroups those after chemotherapy (n = 10) and after radiotherapy (n = 10). The protocol and procedures were undertaken according to the Helsinki Declaration and were approved by the Bioethics Committee of the Świętokrzyska Medical Chamber in Kielce (permission number 1/2015-B). Before obtaining blood, patients and healthy subjects signed informed consent and agreed to the use of the samples for research purposes. Approximately 5 mL of blood was taken from the patients by venous puncture. Blood samples were collected in 3 mL tubes containing EDTA as an anticoagulant, and in tubes with no anticoagulant. Tubes were centrifuged at 3500 rpm for 15 min to obtain plasma and serum, respectively. Erythrocytes were washed with 0.9% sodium chloride. […]
(§4) The activities of TAS, SOD, CAT and GPx were measured using commercial kits, according to the manufacturers’ instructions. […]
The SOD activity was measured with the RANSOD test (Randox Laboratories, United Kingdom) based on the method of McCord and Fridovich. […] The superoxide dismutase activity is measured by the degree of inhibition of this reaction. […] The activity of SOD was measured spectrophotometrically at 505 nm and expressed as U/mL.

Data set [8] deals with MCF-7 (breast adenocarcinoma). The data set is described as follows: in vitro cytotoxicity / proliferation, MCF-7. Particulars: read-out: IC50 (inhibits proliferation of 50% of cells). Format: cell-based, human.
Text: as §1

The subject of data set [9] is CAT. As to the kind of experiment: CAT activity (Catalase assay kit) in patients' blood samples after addition of the mimetic. It is filed as biochemical, human. Particulars: post-chemotherapy group, 25 µg/mL, versus samples without complex.
Text: as §3, with “respectively.” for “respectively. Erythrocytes were washed with 0.9% sodium chloride.”
as §4
The CAT activity measurement was measured with the Catalase assay kit (Calbiochem, Merck, Darmstadt, Germany) based on the reaction of the enzyme with methanol in the presence of an optimal concentration of H2O2 [72]. The formaldehyde produced is measured colourimetrically (at 540 nm) with 4-amino-3-hydrazino- 5-mercapto-1,2,4-triazole (Purpald) as the chromogen.

Data set [10] deals with total antioxidant status (TAS). The data set is described as follows: TAS level (RANDOX test) in patients' blood samples after addition of the mimetic. Format: biochemical, human. Particulars: post-chemotherapy group, 25 µg/mL, versus samples without complex.
Text: as §3, §4
The TAS level was evaluated by RANDOX test (Randox Laboratories, United Kingdom) following the method described by Miller et al.. […] Suppression of the blue-green colour of radicals (measured at 600 nm) is proportional to antioxidants’ concentration (TAS). The results were expressed as mmol/L serum.

For data set [11], the system named is A549 (non-small cell lung carcinoma). The data set is described as follows: in vitro cytotoxicity / proliferation, A549. It is filed as cell-based, human. Particulars: read-out: IC50 (inhibits proliferation of 50% of cells).
Text: as §1

The mark [12] stands for this setting: ABTS^•+ diluted with 5 mM PBS pH 7.4, absorbance at 30 min, read-out: IC50 (ABTS radical scavenging activity).

“Also recorded” adds a separate entry of the source. Where two headings read alike, the source gives them in different places.

As to `OCc1ccccn1` [2-(HOCH2)py, 2-(hydroxymethyl)pyridine, reference compound], in data set [1] (setting [12]), the IC50 stood at 3790 ± 230 µM.
On the same count and under the same terms, in the case of `OCCc1ccccn1` [2-(HOCH2CH2)py, 2-(hydroxyethyl)pyridine, reference compound] it was 7000 µM.
With `O.O.OCc1ccccn1.OCc1ccccn1.OCc1ccccn1.OCc1ccccn1.[Cl-].[Cl-].[Cl-].[Cl-].[Mn+2].[Mn+2]` [[Mn2(μ-Cl)2(2-CH2OHpy)4]Cl2·2H2O], the “TOF (catalytic activity, H2O2 decomposition)” value in [2] was 0.0187 min⁻¹.
For the molecule `N.N.[Cl][Pt][Cl]` [cisplatin, reference compound], the figures for the IC50 in data set [3] and in data set [4] were 9.23 ± 0.77 µM and 3.33 ± 0.38 µM, respectively.
In the case of `OCCc1ccccn1.OCCc1ccccn1.[Cu+2].[Cu+2].[O-]CCc1ccccn1.[O-]CCc1ccccn1.[O-][Cl+3]([O-])([O-])[O-].[O-][Cl+3]([O-])([O-])[O-]` [complex 3, [Cu2(2-(HOCH2CH2)py)2(2-(OCH2CH2)py)2](ClO4)2], the solubility in water result in data set [5] is on record as “soluble in water”. The IC50 in data set [1] (setting [12]) stood at 620 ± 50 µM. For the same molecule, the “stability in buffer solution (PBS)” value in data set [6] is “confirmed the stability”.
For `OC(O)(c1ccccn1)c1ccccn1.OC(O)(c1ccccn1)c1ccccn1.[Cu+2].[O-][Cl+3]([O-])([O-])[O-].[O-][Cl+3]([O-])([O-])[O-]` [complex 5, [Cu(py2C(OH)2)2](ClO4)2], in that order: “soluble in water”, 24500 ± 500 µM and “confirmed the stability”.
As for [Cu(2-(HOCH2)py)3](ClO4)2 [complex 1], in data set [7] (post-chemoradiotherapy group with mimetic), the “SOD activity higher compared to the control group” value came out at 4.2 U/mL. This molecule showed an SOD activity in [7] (post-chemotherapy group, complex 25 μg/mL of blood) of 211.91 U/mL. The IC50 in data set [3] is 98.5 ± 2.7 µM; in data set [8], 91.7 ± 2.9 µM; in [1] (setting [12]) it was 260 ± 30 µM; in data set [1] (Figure 10a and b50, unit inferred, read-out: IC50 (ABTS radical scavenging), unit inferred), 260 ± 30 µM; in data set [4], 106 ± 4.2 µM; in [11], 94.7 ± 3.9 µM. Further, the solubility in water result in data set [5] is on record as “soluble in water; also recorded: good solubility in water”. Also, the “increase of CAT enzyme activity after addition of the mimetic” value in data set [9] came to 0.18 U/mL. In [6], the “stability in buffer solution (PBS)” value is listed as “confirmed the stability”. Also, in data set [4] (BALB/3T3, versus cisplatin), the “lower cytotoxicity against normal cell line compared to cisplatin” value is “about 30 times”. Also, the “increase of total antioxidant status after addition of the mimetic” value in data set [10] came to 0.17 U/mL.
